Experimental data as given in publication PMC5308787, “Isoprenoid-phospholipid conjugates as potential therapeutic agents: Synthesis, characterization and antiproliferative studies” (PLoS ONE, 2017).

Legend:
[1] = tested on: lung (A549), colon (LoVo) and liver (HepG2) cancer cell lines; test: Antiproliferative activity, range over several cancer cell lines as stated in text; format: cell-based; details: Homo sapiens, read-out: IC50 against lung (A549), colon (LoVo) and liver (HepG2) cancer cell lines
Procedure: (§1) The biological studies were performed in vitro using human cancer cell lines: MV4-11 (human biphenotypic B myelomonocytic leukaemia), A-549 (non-small cell lung cancer), MCF-7 (breast cancer), LoVo (colon cancer), LoVo/DX (colon cancer drug resistant), HepG2 (liver cancer) and BALB/3T3 (normal mice fibroblasts). These lines were obtained from American Type Culture Collection (Rockville, Maryland, U.S.A.). The cell line is being maintained in the Institute of Immunology and Experimental Therapy, Wroclaw, Poland. All cell lines were grown at 37°C with 5% CO2 humidified atmosphere and were cultured in cultured medium according to the method described before.
(§2) Prior to usage, the compounds were dissolved in DMSO or in mixture of 99.8% ethanol and DMSO (1:1) to the concentration of 25 or 50 mM, and subsequently diluted in culture medium to reach the required concentrations (ranging from 5 to 625 μM).
Twenty-four hours prior to the addition of tested compounds, the cells were plated in 96-well plates (Sarstedt, Germany) at a density of 1 × 10^4 cells per well in 100 μL of culture medium. […]
The results of antiproliferative activity were given as IC50 values. Using this parameter we calculated also the resistance indexes (RI) dividing the IC50 values of selected compounds estimated for drug resistant cell LOVO/DX line by respective values designated for drug sensitive LoVo line. […]

[2] = tested on: drug resistant LOVO/DX line vs drug sensitive LoVo line; test: Resistance index (RI): IC50 LOVO/DX divided by IC50 LoVo; format: cell-based, human; details: for able to overcome the barrier of P-gp-dependent resistance: judged from RI; for Resistance index (RI): RI = IC50 resistant line / IC50 non-resistant line, 0<RI<2 able to overcome drug resistance, 2<RI<10 moderate ability, RI>10 no influence
Description: (§3) The results of antiproliferative activity were given as IC50 values. Using this parameter we calculated also the resistance indexes (RI) dividing the IC50 values of selected compounds estimated for drug resistant cell LOVO/DX line by respective values designated for drug sensitive LoVo line. According to Harker et al. three categories of the cells could be distinguished: (a) the cells are drug-sensitive—if the ratio approaches 0–2; (b) the cells are moderately drug-resistant—if the ratio ranges from 2 to 10; (c) the cells are markedly drug-resistant—if the ratio is higher than 10.

[3] = tested on: BALB/3T3 (normal mice fibroblasts); test: Antiproliferative SRB assay, 72 h exposure; format: cell-based; details: Mus musculus, BALB/3T3, mean ± SD of 3–5 experiments, n.a. = no activity in concentration of 5, 25, 125, 625 μM
Procedure: as §1, §2
(§4) Twenty-four hours prior to the addition of tested compounds, the cells were plated in 96-well plates (Sarstedt, Germany) at a density of 1 × 10^4 cells per well in 100 μL of culture medium. The assay was performed after 72 h of exposure to varying concentrations of the tested agents. The in vitro cytotoxic effect of tested agents was examined using the MTT (for MV4-11 cells) or SRB assay which were described previously. Each compound in each concentration was tested in triplicate in a single experiment, which was repeated 3–5 times.
as §3

[4] = tested on: MV4-11 (human biphenotypic B myelomonocytic leukaemia); test: Antiproliferative MTT assay, 72 h exposure; format: cell-based; details: Homo sapiens, MV4-11, mean ± SD of 3–5 independent experiments
Procedure: as §1, §2, §4, §3

MCF-7 (breast cancer) = test: Antiproliferative SRB assay, 72 h exposure; format: cell-based, human; details: Homo sapiens, MCF7, mean ± SD of 3–5 experiments, n.a. = no activity in concentration of 5, 25, 125, 625 μM
Procedure: as §1, §2, §4, §3

LoVo (colon cancer) = test: Antiproliferative SRB assay, 72 h exposure; format: cell-based, human; details: LoVo; for IC50: Homo sapiens, SRB, 72 h, mean ± SD of 3–5 experiments, n.a. = no activity in concentration of 5, 25, 125, 625 μM
Procedure: as §1, §2, §4, §3

HepG2 (liver cancer) = test: Antiproliferative SRB assay, 72 h exposure; format: cell-based, human; details: Homo sapiens, HepG2, mean ± SD of 3–5 experiments, n.a. = no activity in concentration of 5, 25, 125, 625 μM
Procedure: as §1, §2, §4, §3

[5] = tested on: A-549 (non-small cell lung cancer); test: Antiproliferative SRB assay, 72 h exposure; format: cell-based, human; details: Homo sapiens, A549, mean ± SD of 3–5 experiments, n.a. = no activity in concentration of 5, 25, 125, 625 μM
Procedure: as §1, §2, §4, §3

[6] = tested on: LoVo/DX (colon cancer drug resistant); test: Antiproliferative SRB assay, 72 h exposure; format: cell-based, human; details: Homo sapiens, LoVo/DX, mean ± SD of 3–5 experiments, n.a. = no activity in concentration of 5, 25, 125, 625 μM
Procedure: as §1, §2, §4, §3

IC50 [1] [µM]	IC50 [4] [µM]	IC50 (MCF-7 (breast cancer)) [µM]	IC50 (LoVo (colon cancer)) [µM]	IC50 (HepG2 (liver cancer)) [µM]	IC50 [5] [µM]	IC50 [6] [µM]	SMILES	able to overcome the barrier of P-gp-dependent resistance [2]	IC50 [3] [µM]	activity against colon cancer cell line, fold lower than cisplatin (LoVo (colon cancer)) [fold]	Resistance index (RI) [2]
13.6 to 57.8	27.8 ± 7.52	45 ± 1.4	13.6 ± 0.7	53.6 ± 5.1	30.4 ± 1.5	57.6 ± 0.6	C=CC(C)(CC/C=C(\C)CCC=C(C)C)CC(=O)OC[C@H](COP(=O)([O-])OCC[N+](C)(C)C)OC(=O)CC(C)(C=C)CC/C=C(\C)CCC=C(C)C (some centres unmarked) [Compound 6b]	exception	57.8 ± 1.4	5	–
–	95 ± 15.2	66.6 ± 4.2	57.4 ± 0.7	159 ± 31.2	72.6 ± 1.6	154 ± 7.9	C=CC(C)(CCC=C(C)C)CC(=O)O[C@H](COC(=O)CCCCCCCCCCCCCCC)COP(=O)([O-])OCC[N+](C)(C)C (stereo partly drawn) [Compound 7a, (2’R)-1’-palmitoyl-2’-[(3R)-3,7-dimethyl-3-vinylocta-6-enyl]-sn-glycero-3’-phosphocholine + (2’R)-1’-palmitoyl-2’-[(3S)-3,7-dimethyl-3-vinylocta-6-enyl]-sn-glycero-3’-phosphocholine]	exception	246 ± 13.9	–	1.91
–	112 ± 39.8	250 ± 45.2	241 ± 15.1	344 ± 40.9	260 ± 33.6	280 ± 44.4	C=CC(C)(CC/C=C(\C)CCC=C(C)C)CC(=O)OC[C@@H](O)COP(=O)([O-])OCC[N+](C)(C)C (some centres unmarked) [Compound 8b]	–	297 ± 18.6	–	1.99
–	132 ± 52.7	231 ± 43.2	173 ± 38.7	274 ± 12	150 ± 16.8	109 ± 16	CCCC=C1C(C)(C)CCCC1(C)CC(=O)O (centres unmarked) [3 (DAA), 2-(2-butylidene-1,3,3-trimethylcyclohexyl)-acetic acid]	–	297 ± 14.4	–	0.63
